Source: PubChem BioAssay AID1963981 (Molecular Pharmacology Branch, DTP, NCI, 2024)

Tested on: 354836-022-R-J1-PDC multicell spheroid viability
Assay: Anticancer human tumor 354836-022-R-J1-PDC patient-derived head and neck squamous cell carcinoma cell line growth inhibition [PI3K]
Conditions: for IC50: curve of first compound; for viability, T/C: stronger effect = lower value
Outline: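 Viability of mixed-cell spheroids was determined after exposure to pairwise combinations, one partner being inavolisib, alpelisib, duvelisib or copanlisib. Highest tested concentration matched clinical Cmax where known and 10 microM where not, descending in half-log steps.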

[1] = second compound 0.0316 µM, first compound 0.0316 µM
[2] = second compound 0.0316 µM, first compound 0.1 µM
[3] = second compound 0.0316 µM, first compound 0.316 µM
[4] = second compound 0.0316 µM, first compound 1 µM
[5] = second compound 0.0316 µM, first compound 3.16 µM
[6] = second compound 0.0316 µM, first compound 10 µM
[7] = second compound 0.1 µM, first compound 0.0316 µM
[8] = second compound 0.1 µM, first compound 0.1 µM
[9] = second compound 0.1 µM, first compound 0.316 µM
[10] = second compound 0.1 µM, first compound 1 µM
[11] = second compound 0.1 µM, first compound 3.16 µM
[12] = second compound 0.1 µM, first compound 10 µM
[13] = second compound 0.316 µM, first compound 0.0316 µM
[14] = second compound 0.316 µM, first compound 0.1 µM
[15] = second compound 0.316 µM, first compound 0.316 µM
[16] = second compound 0.316 µM, first compound 1 µM
[17] = second compound 0.316 µM, first compound 3.16 µM
[18] = second compound 0.316 µM, first compound 10 µM
[19] = second compound 1 µM, first compound 0.0316 µM
[20] = second compound 1 µM, first compound 0.1 µM
[21] = second compound 1 µM, first compound 0.316 µM
[22] = second compound 1 µM, first compound 1 µM
[23] = second compound 1 µM, first compound 3.16 µM
[24] = second compound 1 µM, first compound 10 µM
[25] = second compound 3.16 µM, first compound 0.0316 µM
[26] = second compound 3.16 µM, first compound 0.1 µM
[27] = second compound 3.16 µM, first compound 0.316 µM
[28] = second compound 3.16 µM, first compound 1 µM
[29] = second compound 3.16 µM, first compound 3.16 µM
[30] = second compound 3.16 µM, first compound 10 µM
[31] = second compound 10 µM, first compound 0.0316 µM
[32] = second compound 10 µM, first compound 0.1 µM
[33] = second compound 10 µM, first compound 0.316 µM
[34] = second compound 10 µM, first compound 1 µM
[35] = second compound 10 µM, first compound 3.16 µM
[36] = second compound 10 µM, first compound 10 µM
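Further: spheroids exposed to agents for seven days before the viability read.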

Q: How did the IC50 (second compound 0.0316 µM) turn out when CC(C)NCC(C(=O)N1CCN(c2ncnc3c2C(C)CC3O)CC1)c1ccc(Cl)cc1 (centres undefined) + CC(Nc1ncnc2nc[nH]c12)c1cc2cccc(Cl)c2c(=O)n1-c1ccccc1 was run?
A: 0.317 µM

Q: And the IC50 (second compound 0.1 µM)?
A: 0.49 µM

Q: And the IC50 (second compound 0.316 µM)?
A: 0.34 µM

Q: What about the IC50 (second compound 1 µM) of the same molecule?
A: 0.491 µM

Q: And the IC50 (second compound 3.16 µM)?
A: 0.383 µM

Q: And the IC50 (second compound 10 µM)?
A: 0.454 µM

Q: And the viability, T/C [1]?
A: 87.3%

Q: What about the viability, T/C [2] of the same molecule?
A: 75.8%

Q: What about the viability, T/C [3] of the same molecule?
A: 47.8%

Q: What about the viability, T/C [4] of the same molecule?
A: 27.4%

Q: What about the viability, T/C [5] of the same molecule?
A: 10.1%

Q: And the viability, T/C [6]?
A: 3.75%

Q: And the viability, T/C [7]?
A: 90.7%

Q: And the viability, T/C [8]?
A: 79.7%

Q: And the viability, T/C [9]?
A: 52.3%

Q: What about the viability, T/C [10] of the same molecule?
A: 43.7%

Q: What about the viability, T/C [11] of the same molecule?
A: 12.9%

Q: And the viability, T/C [12]?
A: 3.85%

Q: And the viability, T/C [13]?
A: 100%

Q: And the viability, T/C [14]?
A: 77.7%

Q: What about the viability, T/C [15] of the same molecule?
A: 50.1%

Q: What about the viability, T/C [16] of the same molecule?
A: 32.2%

Q: And the viability, T/C [17]?
A: 7.64%

Q: And the viability, T/C [18]?
A: 5.53%

Q: What about the viability, T/C [19] of the same molecule?
A: 95.2%

Q: And the viability, T/C [20]?
A: 84.8%

Q: What about the viability, T/C [21] of the same molecule?
A: 64.3%

Q: What about the viability, T/C [22] of the same molecule?
A: 27.3%

Q: What about the viability, T/C [23] of the same molecule?
A: 13.8%

Q: And the viability, T/C [24]?
A: 3.16%

Q: And the viability, T/C [25]?
A: 102%

Q: And the viability, T/C [26]?
A: 82.3%

Q: What about the viability, T/C [27] of the same molecule?
A: 52.5%

Q: And the viability, T/C [28]?
A: 30.8%

Q: And the viability, T/C [29]?
A: 12.4%

Q: What about the viability, T/C [30] of the same molecule?
A: 4.48%

Q: What about the viability, T/C [31] of the same molecule?
A: 87.5%

Q: And the viability, T/C [32]?
A: 76.7%

Q: And the viability, T/C [33]?
A: 61.2%

Q: What about the viability, T/C [34] of the same molecule?
A: 28.4%

Q: And the viability, T/C [35]?
A: 11%

Q: What about the viability, T/C [36] of the same molecule?
A: 3.05%

Q: How did the IC50 (second compound 0.0316 µM) turn out when CC1(C)CCC(CN2CCN(c3ccc(C(=O)NS(=O)(=O)c4ccc(NCC5CCOCC5)c([N+](=O)[O-])c4)c(Oc4cnc5[nH]ccc5c4)c3)CC2)=C(c2ccc(Cl)cc2)C1 + CC(Nc1ncnc2nc[nH]c12)c1cc2cccc(Cl)c2c(=O)n1-c1ccccc1 was run?
A: > 10 µM

Q: What about the IC50 (second compound 0.1 µM) of the same molecule?
A: > 10 µM

Q: And the IC50 (second compound 0.316 µM)?
A: > 10 µM

Q: And the IC50 (second compound 1 µM)?
A: > 10 µM

Q: And the IC50 (second compound 3.16 µM)?
A: > 10 µM

Q: What about the IC50 (second compound 10 µM) of the same molecule?
A: > 10 µM

Q: And the viability, T/C [1]?
A: 92.4%

Q: What about the viability, T/C [2] of the same molecule?
A: 78%

Q: What about the viability, T/C [3] of the same molecule?
A: 85.5%

Q: And the viability, T/C [4]?
A: 91.7%

Q: What about the viability, T/C [5] of the same molecule?
A: 71.3%

Q: And the viability, T/C [6]?
A: 110%

Q: And the viability, T/C [7]?
A: 81.3%

Q: What about the viability, T/C [8] of the same molecule?
A: 89.1%

Q: What about the viability, T/C [9] of the same molecule?
A: 97.8%

Q: And the viability, T/C [10]?
A: 99.5%

Q: What about the viability, T/C [11] of the same molecule?
A: 67.2%

Q: And the viability, T/C [12]?
A: 93%

Q: What about the viability, T/C [13] of the same molecule?
A: 86.3%

Q: What about the viability, T/C [14] of the same molecule?
A: 105%

Q: What about the viability, T/C [15] of the same molecule?
A: 103%

Q: What about the viability, T/C [16] of the same molecule?
A: 97.7%

Q: What about the viability, T/C [17] of the same molecule?
A: 64.1%

Q: And the viability, T/C [18]?
A: 93%

Q: What about the viability, T/C [19] of the same molecule?
A: 106%

Q: What about the viability, T/C [20] of the same molecule?
A: 92.8%

Q: And the viability, T/C [21]?
A: 93.4%

Q: And the viability, T/C [22]?
A: 80.9%

Q: And the viability, T/C [23]?
A: 66.4%

Q: And the viability, T/C [24]?
A: 87.2%

Q: What about the viability, T/C [25] of the same molecule?
A: 89.1%

Q: What about the viability, T/C [26] of the same molecule?
A: 106%

Q: And the viability, T/C [27]?
A: 95.2%

Q: And the viability, T/C [28]?
A: 85.6%

Q: What about the viability, T/C [29] of the same molecule?
A: 60.8%

Q: What about the viability, T/C [30] of the same molecule?
A: 93.5%

Q: And the viability, T/C [31]?
A: 90.9%

Q: And the viability, T/C [32]?
A: 87%

Q: And the viability, T/C [33]?
A: 90.2%

Q: What about the viability, T/C [34] of the same molecule?
A: 82.2%

Q: What about the viability, T/C [35] of the same molecule?
A: 53%

Q: What about the viability, T/C [36] of the same molecule?
A: 76.2%
